The supplement of paper PMC10307832

Legend:
Experiment in all cases: relative viability (nuclei count vs DMSO), 5 days (fraction); higher = more cells survive
Metformin + Lapatinib = compound: CN(C)C(=N)NC(=N)N [Metformin] + CS(=O)(=O)CCNCc1ccc(-c2ccc3ncnc(Nc4ccc(OCc5cccc(F)c5)c(Cl)c4)c3c2)o1 [Lapatinib] (partner 2 µM)
How it was run: (§1)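 Medians of duplicate plates are given as relative viability. That measure is the nuclei count in treated wells divided by the count in vehicle wells. Counts were taken on 4× images of lung cancer cell lines in 1536-well plates, 5 days after pin-tool dosing the day after seeding with one drug alone or a fixed anchor-drug dose plus five library-drug doses (not always all listed) in √10 steps.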

Apatinib + Crizotinib = compound: N#CC1(c2ccc(NC(=O)c3cccnc3NCc3ccncc3)cc2)CCCC1 [Apatinib] + C[C@@H](Oc1cc(-c2cnn(C3CCNCC3)c2)cnc1N)c1c(Cl)ccc(F)c1Cl [Crizotinib] (partner 1 µM)
How it was run: as §1

Apatinib + Olaparib = compound: N#CC1(c2ccc(NC(=O)c3cccnc3NCc3ccncc3)cc2)CCCC1 [Apatinib] + O=C(c1cc(Cc2n[nH]c(=O)c3ccccc23)ccc1F)N1CCN(C(=O)C2CC2)CC1 [Olaparib] (partner 8 µM)
How it was run: as §1

Metformin + Dasatinib = compound: CN(C)C(=N)NC(=N)N [Metformin] + Cc1nc(Nc2ncc(C(=O)Nc3c(C)cccc3Cl)s2)cc(N2CCN(CCO)CC2)n1 [Dasatinib] (partner 0.075 µM)
How it was run: as §1

Cell Line | relative viability (Metformin + Lapatinib; first compound 10 µM) | relative viability (Metformin + Lapatinib; first compound 31.62 µM) | relative viability (Metformin + Lapatinib; first compound 100 µM) | relative viability (Metformin + Lapatinib; first compound 316.23 µM) | relative viability (Metformin + Lapatinib; first compound 1000 µM) | relative viability (Apatinib + Crizotinib; first compound 0.08 µM) | relative viability (Apatinib + Crizotinib; first compound 0.253 µM) | relative viability (Apatinib + Crizotinib; first compound 0.8 µM) | relative viability (Apatinib + Crizotinib; first compound 2.53 µM) | relative viability (Apatinib + Crizotinib; first compound 8 µM) | relative viability (Apatinib + Olaparib; first compound 0.08 µM) | relative viability (Apatinib + Olaparib; first compound 0.253 µM) | relative viability (Apatinib + Olaparib; first compound 0.8 µM) | relative viability (Apatinib + Olaparib; first compound 2.53 µM) | relative viability (Apatinib + Olaparib; first compound 8 µM) | relative viability (Metformin + Dasatinib; first compound 10 µM) | relative viability (Metformin + Dasatinib; first compound 31.62 µM) | relative viability (Metformin + Dasatinib; first compound 100 µM) | relative viability (Metformin + Dasatinib; first compound 316.23 µM) | relative viability (Metformin + Dasatinib; first compound 1000 µM)
HCC-78 | 0.494 | 1.05 | 0.863 | 0.933 | 0.969 | 0.328 | 0.325 | 0.326 | 0.347 | 0.346 | 0.803 | 0.696 | 0.878 | 0.711 | 0.768 | 0.405 | 0.469 | 0.459 | 0.549 | 0.327
HCC-366 | 1.05 | 1.05 | 1 | 1.07 | 1.01 | 0.437 | 0.587 | 0.605 | 0.466 | 0.547 | 0.435 | 0.372 | 0.249 | 0.292 | 0.245 | 0.565 | 0.566 | 0.632 | 0.568 | 0.81
HCC-827 |  | 0.216 | 0.185 | 0.232 | 0.18 | 0.969 | 0.887 | 0.767 | 0.83 | 0.575 | 0.68 | 0.628 | 0.644 | 0.54 | 0.561 |  | 0.317 | 0.356 | 0.317 | 0.316
HOP-62 | 0.725 | 1.05 | 0.891 | 0.777 | 1.05 | 0.989 |  | 0.868 | 0.935 | 0.654 | 0.328 | 0.396 | 0.407 | 0.354 | 0.282 | 0.748 | 0.664 | 0.687 | 0.713 | 0.655
IA-LM | 1.13 | 0.944 |  | 0.886 | 1.21 | 0.857 | 0.615 | 0.697 | 0.694 | 0.192 | 0.765 | 0.766 | 0.769 | 0.607 | 0.396 |  |  |  |  | 
LC-2-ad |  | 1.03 | 0.853 | 0.799 | 1 | 0.477 | 0.496 | 0.463 | 0.473 | 0.482 | 0.747 | 0.658 | 0.699 | 0.743 | 0.668 |  | 0.598 | 0.606 | 0.372 | 0.44
LCLC-97TM1 | 0.888 | 1.36 | 0.888 | 1.08 | 1.53 | 0.449 | 0.409 | 0.372 | 0.264 | 0.161 | 0.524 | 0.541 | 0.353 | 0.351 | 0.172 | 0.739 | 0.734 | 0.591 | 0.529 | 0.725
LCLC-103H |  |  |  |  |  | 1.02 | 1.05 | 1.01 | 0.97 | 1.07 | 0.753 | 0.713 | 0.745 | 0.712 | 0.753 | 0.598 | 0.579 | 0.579 | 0.514 | 0.588
LK-2 | 1.22 | 1.19 | 1.23 | 0.878 | 0.697 | 0.243 | 0.218 | 0.212 | 0.237 | 0.242 | 0.903 | 0.581 | 0.64 | 0.63 | 0.515 | 0.447 | 0.424 | 0.381 | 0.383 | 0.558
LOU-NH91 | 0.784 | 0.775 | 0.725 | 0.755 | 0.71 | 0.76 | 0.751 | 0.722 | 0.69 | 0.629 | 0.976 | 0.885 | 0.783 | 0.87 | 0.825 | 0.576 | 0.491 | 0.498 | 0.538 | 0.499
LU99A | 0.92 | 0.904 | 0.837 | 0.864 | 0.985 | 0.585 | 0.55 | 0.526 | 0.444 | 0.458 | 0.286 | 0.269 | 0.276 | 0.252 | 0.207 | 0.415 | 0.459 | 0.511 | 0.516 | 0.538
NCI-H441 |  |  |  |  |  | 0.789 | 0.756 | 0.809 | 0.416 | 0.426 | 0.684 | 0.612 | 0.505 | 0.561 | 0.367 |  | 0.577 | 0.609 | 0.385 | 0.544
NCI-H522 |  |  |  |  |  |  |  |  |  |  | 0.667 | 0.644 | 0.615 | 0.692 | 0.584 | 1.07 | 1.15 | 1.18 | 1.02 | 1.07
NCI-H1299 | 0.973 | 1.03 | 1.04 | 1.01 | 0.999 | 0.998 | 0.974 | 0.517 | 0.961 | 0.77 | 1.03 | 1.01 | 0.927 | 0.873 | 0.638 |  |  |  |  | 
NCI-H1395 | 1.11 | 1.25 | 1.36 | 0.963 | 0.576 |  |  |  |  |  | 0.485 | 0.459 | 0.488 | 0.452 | 0.395 | 0.438 | 0.483 | 0.493 | 0.385 | 0.509
NCI-H1563 | 0.999 | 0.912 | 1.02 | 0.924 | 0.783 | 0.824 | 0.848 | 0.864 | 0.851 | 0.797 |  |  |  |  |  | 0.535 | 0.573 | 0.574 | 0.545 | 0.489
NCI-H1648 |  |  |  |  |  |  |  |  |  |  | 0.934 | 0.854 | 0.761 | 0.501 | 0.433 |  |  |  |  | 
NCI-H1703 | 1.71 | 1.46 | 1.15 | 1.05 | 1.05 | 0.359 | 0.464 | 0.347 | 0.194 | 0.15 | 0.512 | 0.21 | 0.173 | 0.159 | 0.138 |  |  |  |  | 
NCI-H1793 | 0.733 | 0.773 | 0.902 | 0.73 | 0.759 |  |  |  |  |  | 0.959 | 0.897 | 0.813 | 0.798 | 0.555 | 0.38 |  | 0.42 | 0.342 | 0.515
NCI-H2342 |  |  |  |  |  |  |  |  |  |  | 0.419 | 0.477 | 0.457 | 0.438 | 0.368 | 0.315 | 0.291 | 0.326 | 0.285 | 0.356
SW 900 |  |  |  |  |  |  |  |  |  |  | 0.974 | 0.823 | 0.842 | 0.714 | 0.606 | 0.844 | 0.989 | 0.73 | 0.825 | 0.766
